Assay results as given in patent US7001735B2, “Glucose transporter/sensor protein and uses thereof” (Albert Einstein College of Medicine of Yeshiva University, priority 2000, dated 2006).

Experiments:
GLUTx [1] = test: Immunocytochemical localisation of GLUTx in insulin-stimulated MTLn3 cells; assay type: cell-based, rat; conditions: insulin 500 nM, 1 h, basal state perinuclear Golgi region, data not shown
Procedure: (§1) Immunohistochemistry was performed according to protocols provided by the Dako LSAB (labeled streptoavidin biotin reagents) and Dako EnVision+System (peroxidase, DAB) kits. However, some modifications were made. In brief, tissue on a slide was deparaffinized in xylene, and rehydrated in water. For cells that were processed, the slides or coverslips containing the cells were fixed in 4% paraformaldehyde for 1 h, then washed 4 times in buffered solution (TBS). The slides were placed in 3% H2O2 for 15 min in a 37° C. water bath to quench endogenous peroxidase activity. Epitope retrieval in paraffin-embedded tissue was achieved by heating the slides to 95° C. in a pre-heated citric acid solution (0.01 M citric acid, 0.01 M sodium citrate; pH 6.0). This temperature was maintained for 15 min in a microwave on high power or in a steam bath. The slides then were cooled. At this point, processing was started for the slides containing fixed cells.
(§2) Next, the primary antibody to GLUTx was applied to the slides for 30 min at room temperature (RT). Slides were rinsed in TBS 3 times for 5 min. The slides then were incubated with secondary antibody, as provided in the kit, for 15–20 min at RT. The slides were rinsed well with PBS, and the tertiary reagent (Strep-Avidin or HRP-labeled EnVision polymer) was applied for 15–20 min at RT. […]

GLUTx [2] = test: Immunocytochemical localisation of GLUTx in insulin-stimulated MTC cells; assay type: cell-based, rat; conditions: insulin 500 nM, 1 h, basal state mainly perinuclear Golgi region, data not shown
Procedure: as §1, §2

insulin: hormone used to stimulate the cells (500 nM for 1 h)
distribution of GLUTx (light microscopy) (GLUTx [1]): also associated with the cell membrane | distribution of GLUTx (light microscopy) (GLUTx [2]): localized also on the cell membrane
